Experimental data from patent publication EP4722215A1, “AMORPHOUS SUBSTANCE AND CRYSTAL OF DIOXOPIPERIDINE COMPOUND OR PHARMACEUTICALLY ACCEPTABLE SALT THEREOF, PREPARATION METHOD, AND USE” (Jiangsu Hengrui Pharmaceuticals Co., Ltd., priority 2023, dated 2024).
Counter-ions that a name gives are not always drawn.

Assays:
in vivo = conditions: both, beagle, dog, plasma, po, 2 mg/kg
Description: Beagles were used as test animals. The plasma concentrations of a compound of the present disclosure in beagles at different time points after intragastric (i.g.) administration were determined using an LC/MS/MS method. The pharmacokinetic behavior of the compound of the present disclosure in beagles was studied, and its pharmacokinetic profile was evaluated.
Eight beagles (half male and half female, provided by Jiangsu Johnbio Biotechnology Co., Ltd.) were evenly divided into 2 groups. The animals were fasted overnight and then subjected to intragastric administration.
The administration dose was 2.0 mg/kg, and the administration volume was 5.0 mL/kg.
The samples were then placed into EDTA-K2 anticoagulation test tubes and centrifuged at 10,000 rpm for 2 min (4 °C), and plasma was separated within 1 h and stored at -80 °C before analysis. The procedures from the blood collection to the centrifugation were performed under ice-bath conditions. Access to food was given 3 h after administration.
After administration of different concentrations of the test compounds, the plasma concentrations of the test compounds in the beagles were determined as follows: 50 µL of each of the beagle plasma samples collected at various time points after administration was taken; 25 µL of camptothecin (1 µg/mL) and 450 µL of acetonitrile were added to precipitate protein, and the mixture was vortex-mixed and then centrifuged at 3700 rpm for 10 min; 0.5 µL of the supernatant was taken for LC/MS/MS analysis.

[1] = Pharmacokinetic evaluation in cynomolgus monkeys, intragastric administration, plasma LC/MS/MS; type: in vivo; conditions: both sexes, cynomolgus monkey, po, i.g., 2.0 mg/kg
Description: Cynomolgus monkeys were used as test animals.
Eight cynomolgus monkeys (half male and half female, provided by Shanghai Medicilon Inc.) were evenly divided into 2 groups.
Access to food and ad libitum access to water were given 3 h after administration.

[2] = Long-term/accelerated stability study (sealed in aluminum foil bags); type: physicochemical; conditions: for Crystal form: up to 6 months
Excerpt: The results are shown below. Table 16
The results are shown below. Table 20

[3] = Influencing factor stability study (open containers, high temperature / high humidity, 30 days); type: physicochemical
Description: Influencing factor stability study: Samples of the free-state form were taken, spread in open containers, and left to stand under high-temperature (40 °C and 60 °C) and high-humidity (RH 75% and RH 92.5%) conditions for 30 days to study its stability.
Influencing factor stability study of salt forms: Samples of the salt forms were taken, spread in open containers, and left to stand under high-temperature (40 °C and 60 °C) and high-humidity (RH 75%) conditions for 30 days to study their stability.

[4] = Dynamic vapor sorption (DVS) hygroscopicity; type: physicochemical
androgen receptor (AR) = molecular target: T1, androgen receptor (AR) (Homo sapiens, UniProt P10275, T878A); assay: Degradation activity on androgen receptor in LNCaP cells (AR ELISA); type: cell-based; conditions: 0.1 nM R1881, 24 h
T1 construct: host or cells: LNCaP
T1 sequence (P10275 whole entry T878A): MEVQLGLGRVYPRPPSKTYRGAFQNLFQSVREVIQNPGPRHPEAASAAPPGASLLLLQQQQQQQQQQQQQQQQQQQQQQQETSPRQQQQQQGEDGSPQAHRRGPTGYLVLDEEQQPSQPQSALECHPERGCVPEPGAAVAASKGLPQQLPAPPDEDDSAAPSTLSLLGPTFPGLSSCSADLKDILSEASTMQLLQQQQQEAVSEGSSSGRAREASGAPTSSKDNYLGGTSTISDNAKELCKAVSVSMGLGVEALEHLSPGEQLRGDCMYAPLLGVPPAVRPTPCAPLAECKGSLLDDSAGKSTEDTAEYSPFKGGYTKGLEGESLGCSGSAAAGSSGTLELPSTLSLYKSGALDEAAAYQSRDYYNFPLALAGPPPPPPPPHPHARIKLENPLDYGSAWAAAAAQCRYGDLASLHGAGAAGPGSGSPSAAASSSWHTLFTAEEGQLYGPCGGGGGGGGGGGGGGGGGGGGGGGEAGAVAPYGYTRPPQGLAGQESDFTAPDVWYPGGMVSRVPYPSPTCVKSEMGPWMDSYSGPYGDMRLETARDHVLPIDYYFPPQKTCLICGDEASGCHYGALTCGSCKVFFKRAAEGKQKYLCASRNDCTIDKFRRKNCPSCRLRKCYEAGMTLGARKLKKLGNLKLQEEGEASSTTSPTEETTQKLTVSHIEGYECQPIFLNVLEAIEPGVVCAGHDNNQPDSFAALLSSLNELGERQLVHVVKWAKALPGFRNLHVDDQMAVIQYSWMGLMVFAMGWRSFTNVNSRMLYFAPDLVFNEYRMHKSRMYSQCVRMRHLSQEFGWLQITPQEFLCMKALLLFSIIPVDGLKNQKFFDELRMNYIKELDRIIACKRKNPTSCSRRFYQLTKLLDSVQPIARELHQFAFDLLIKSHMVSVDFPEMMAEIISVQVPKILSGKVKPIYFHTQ
T1 sequence (Q96SW2 whole entry partner): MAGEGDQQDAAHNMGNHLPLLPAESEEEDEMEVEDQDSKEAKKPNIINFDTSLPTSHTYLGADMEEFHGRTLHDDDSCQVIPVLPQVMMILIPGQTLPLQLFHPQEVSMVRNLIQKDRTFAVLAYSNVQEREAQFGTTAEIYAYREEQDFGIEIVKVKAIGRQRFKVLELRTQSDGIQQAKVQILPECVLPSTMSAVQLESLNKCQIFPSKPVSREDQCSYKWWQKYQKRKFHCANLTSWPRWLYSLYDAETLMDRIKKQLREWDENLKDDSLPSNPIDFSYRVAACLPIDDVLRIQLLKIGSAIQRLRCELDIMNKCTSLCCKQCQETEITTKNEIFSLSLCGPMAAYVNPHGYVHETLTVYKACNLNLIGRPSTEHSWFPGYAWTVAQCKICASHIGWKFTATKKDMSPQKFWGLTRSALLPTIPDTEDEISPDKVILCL
Description: After five washes, 100 µL of detection antibody working solution was added. […] After five washes, 100 µL of enzyme conjugate working solution was added. […] After five washes, 100 µL of substrate solution was added.

SMILES	Purity (%) ([2]; 25 °C/60% RH, 1 month)	Purity (%) ([2]; 25 °C/60% RH, 2 months)	Purity (%) ([2]; 25 °C/60% RH, 3 months)	Purity (%) ([2]; 25 °C/60% RH, 6 months)	Purity (%) ([2]; 25 °C/60% RH, Initial)	Crystal form ([2]; 25 °C/60% RH)	Purity (%) ([2]; 40 °C/75% RH, 1 month)	Purity (%) ([2]; 40 °C/75% RH, 2 months)	Purity (%) ([2]; 40 °C/75% RH, 3 months)	Purity (%) ([2]; 40 °C/75% RH, 6 months)	Purity (%) ([2]; 40 °C/75% RH, Initial)	Crystal form ([2]; 40 °C/75% RH)	Crystal form ([3]; 40 °C, 5 days)	Purity (%) ([3]; 40 °C, 5 days)	Crystal form ([3]; 40 °C, 10 days)	Purity (%) ([3]; 40 °C, 10 days)	Purity (%) ([3]; 40 °C, 30 days)	Crystal form ([3]; 60 °C, 5 days)	Purity (%) ([3]; 60 °C, 5 days)	Crystal form ([3]; 60 °C, 10 days)	further results
N#Cc1ccc(O[C@H]2CC[C@H](NC(=O)c3ccc(N4CCC(CN5CCN(c6cc7c(cc6F)C(=O)N(C6CCC(=O)NC6=O)C7=O)CC5)CC4)nn3)CC2)cc1Cl (stereo partly drawn) [ARV-110]	–	–	–	–	–	–	–	–	–	–	–	–	–	–	–	–	–	–	–	–	AUC(0-t) (in vivo): 239 ng·h/mL; CL/F (in vivo): 70.9 mL/min/kg; Cmax (in vivo): 13 ng/mL; AUC(0-t) ([1]; read-out: Area under curve AUC0-t): 282 ng·h/mL; CL/F ([1]; read-out: Clearance rate CL/F): 44.6 mL/min/kg; Cmax ([1]; read-out: Plasma concentration Cmax): 15.9 ng/mL
C[C@H]1CC2(CCN(c3ccc(C(=O)N4CCC(CN5CCN(c6cccc(N[C@H]7CCC(=O)NC7=O)c6)CC5)CC4)cc3F)CC2)CN1c1ccc(C#N)c(Cl)c1 [Amorphous form of maleate]	98.9	98.9	98.9	98.7	98.9	No change	98.7	98.6	98.3	94.8	98.9	No change	–	–	–	–	–	–	–	–	–
C[C@H]1CC2(CCN(c3ccc(C(=O)N4CCC(CN5CCN(c6cccc(N[C@H]7CCC(=O)NC7=O)c6)CC5)CC4)cc3F)CC2)CN1c1ccc(C#N)c(Cl)c1 [Amorphous form, 2-chloro-4-((S)-8-(4-(4-((4-(3-(((S)-2,6-dioxopiperidin-3-yl)amino)phenyl)piperazin-1-yl)methyl)piperidine-1-carbonyl)-2-fluorophenyl)-3-methyl-2,8-diazaspiro[4.5]decan-2-yl)benzonitrile]	98.7	98.5	98.5	98.5	98.8	No change	98.7	98.4	98.4	98.3	98.8	No change	No change	98.7	No change	98.6	98.6	No change	98.6	No change	physical and chemical stability ([2]; long-term accelerated conditions for 6 months): good physical and chemical stability; Crystal form ([3]; 40 °C, 30 days): No change; Purity (%) ([3]; 60 °C, 10 days): 98.6%; Crystal form ([3]; 60 °C, 30 days): No change; Purity (%) ([3]; 60 °C, 30 days): 98.4%; Crystal form ([3]; 75% RH, 5 days): No change; Purity (%) ([3]; 75% RH, 5 days): 98.7%; Crystal form ([3]; 75% RH, 10 days): No change; Purity (%) ([3]; 75% RH, 10 days): 98.7%; Crystal form ([3]; 75% RH, 30 days): No change; Purity (%) ([3]; 75% RH, 30 days): 98.7%; Crystal form ([3]; 92.5% RH, 5 days): No change; Purity (%) ([3]; 92.5% RH, 5 days): 98.7%; Crystal form ([3]; 92.5% RH, 10 days): No change; Purity (%) ([3]; 92.5% RH, 10 days): 98.7%; Crystal form ([3]; 92.5% RH, 30 days): No change; Purity (%) ([3]; 92.5% RH, 30 days): 98.6%; Purity (%) ([3]; Initial, 0 days): 98.8%; chemical stability ([3]; high-temperature and high-humidity conditions): good chemical stability
C[C@H]1CC2(CCN(c3ccc(C(=O)N4CCC(CN5CCN(c6cccc(N[C@H]7CCC(=O)NC7=O)c6)CC5)CC4)cc3F)CC2)CN1c1ccc(C#N)c(Cl)c1 [Crystal form A of mandelate]	99.4	99.3	99.3	99.3	99.4	No change	99.4	99.3	99.3	98.9	99.4	No change	No change	98.6	No change	98.6	98.4	No change	98.4	No change	Crystal form ([3]; 40 °C, 30 days): No change; Purity (%) ([3]; 60 °C, 10 days): 98.5%; Crystal form ([3]; 60 °C, 30 days): No change; Purity (%) ([3]; 60 °C, 30 days): 98.2%; Crystal form ([3]; 75% RH, 5 days): No change; Purity (%) ([3]; 75% RH, 5 days): 98.5%; Crystal form ([3]; 75% RH, 10 days): No change; Purity (%) ([3]; 75% RH, 10 days): 98.5%; Crystal form ([3]; 75% RH, 30 days): No change; Purity (%) ([3]; 75% RH, 30 days): 98.5%; Purity (%) ([3]; Initial, 0 days): 98.6%; hygroscopic weight gain ([4]; accelerated test conditions, 70% RH): about 1.047%; crystal form before and after DVS testing (XRPD) ([4]; before and after DVS testing): did not change; hygroscopic weight gain ([4]; extreme conditions, 90% RH): about 2.245%; hygroscopic weight gain ([4]; normal storage conditions, 25 °C and 60% RH): about 0.833%
C[C@H]1CC2(CCN(c3ccc(C(=O)N4CCC(CN5CCN(c6cccc(N[C@H]7CCC(=O)NC7=O)c6)CC5)CC4)cc3F)CC2)CN1c1ccc(C#N)c(Cl)c1 [Crystal form B of succinate]	98.5	98.5	98.7	98.6	98.7	No change	98.5	98.5	98.5	98.3	98.7	No change	–	–	–	–	–	–	–	–	–
C[C@H]1CC2(CCN(c3ccc(C(=O)N4CCC(CN5CCN(c6cccc(N[C@H]7CCC(=O)NC7=O)c6)CC5)CC4)cc3F)CC2)CN1c1ccc(C#N)c(Cl)c1 [Crystal form I of hydrochloride]	–	–	–	–	–	–	–	–	–	–	–	–	No change	97.5	No change	96.9	95.3	No change	97.2	No change	Purity (%) ([3]; 60 °C, 10 days): 96.5%; Purity (%) ([3]; 60 °C, 30 days): 94.5%; Crystal form ([3]; 75% RH, 5 days): No change; Purity (%) ([3]; 75% RH, 5 days): 97.5%; Crystal form ([3]; 75% RH, 10 days): No change; Purity (%) ([3]; 75% RH, 10 days): 97.1%; Purity (%) ([3]; 75% RH, 30 days): 96.5%; Purity (%) ([3]; Initial, 0 days): 98.1%
C[C@H]1CC2(CCN(c3ccc(C(=O)N4CCC(CN5CCN(c6cccc(NC7CCC(=O)NC7=O)c6)CC5)CC4)cc3F)CC2)CN1c1ccc(C#N)c(Cl)c1 (stereo partly drawn) [Example 1, 2-Chloro-4-((3S)-8-(4-(4-((4-(3-((2,6-dioxopiperidin-3-yl)amino)phenyl)piperazin-1-yl)methyl)piperidine-1-carbonyl)-2-fluorophenyl)-3-methyl-2,8-diazaspiro[4.5]decan-2-yl)benzonitrile]	–	–	–	–	–	–	–	–	–	–	–	–	–	–	–	–	–	–	–	–	DC50 (androgen receptor (AR)): 2.5 nM
C[C@H]1CC2(CCN(c3ccc(C(=O)N4CCC(CN5CCN(c6cccc(N[C@H]7CCC(=O)NC7=O)c6)CC5)CC4)cc3F)CC2)CN1c1ccc(C#N)c(Cl)c1 [Example 1-1, 2-Chloro-4-((S)-8-(4-(4-((4-(3-(((S)-2,6-dioxopiperidin-3-yl)amino)phenyl)piperazin-1-yl)methyl)piperidine-1-carbonyl)-2-fluorophenyl)-3-methyl-2,8-diazaspiro[4.5]decan-2-yl)benzonitrile]	–	–	–	–	–	–	–	–	–	–	–	–	–	–	–	–	–	–	–	–	DC50 (androgen receptor (AR)): 4.2 nM
C[C@H]1CC2(CCN(c3ccc(C(=O)N4CCC(CN5CCN(c6cccc(N[C@@H]7CCC(=O)NC7=O)c6)CC5)CC4)cc3F)CC2)CN1c1ccc(C#N)c(Cl)c1 [Example 1-2, 2-Chloro-4-((S)-8-(4-(4-((4-(3-(((R)-2,6-dioxopiperidin-3-yl)amino)phenyl)piperazin-1-yl)methyl)piperidine-1-carbonyl)-2-fluorophenyl)-3-methyl-2,8-diazaspiro[4.5]decan-2-yl)benzonitrile]	–	–	–	–	–	–	–	–	–	–	–	–	–	–	–	–	–	–	–	–	DC50 (androgen receptor (AR)): 14.2 nM
